Values joined by “and” are separate entries in the source; they are usually repeats but may differ in a detail not shown here. Equal values may be shown once.
Tests used:
Format in all cases: cell-based, human
[1] = tested on: ferritin heavy chain 1 (FTH1) mRNA; experiment: FTH1 gene expression by qRT-PCR in LNCaP cells
Method: (§1) Gene Expression. LNCaP, PC-3, VCaP, and VCaP-EnzR cells were seeded in 24-well plates and maintained in RPMI1640 medium supplemented with 2 mmol/L L-glutamine. 100 U/mL penicillin, […] streptomycin, and 10% heat-inactivated fetal bovine serum at 37° C. in a humidified 5% CO2 atmosphere. […] SPH absent wells (DMSO 0.04%) were used as the negative control. All experiments were run in triplicate.
(§2) Samples were studied for expression of the ferritin heavy chain 1 (FTH1) and transferrin receptor 1 ([…]) genes. Total RNA was extracted from cell pellets using the UPzol reagent (Biotechrabbit), followed by DNAse treatment (DNAse TURBO) according to the manufacturers' protocols. Complementary DNA (cDNA) was synthesized with the High Capacity cDNA Reverse Transcription Kit (Applied Biosystems) using random hexamers. Gene expression levels were measured by qRT-PCR.
(§3) 1 μl of cDNA (corresponding to 50 ng of reverse transcribed RNA) was amplified by Qpcr (QuantStudio™ 6 Flex Real-Time PCR System), using TaqMan™ Universal PCR Master Mix (Catalog No. 4304437) and a TaqMan™ assay (Roche Molecular Systems, Inc., Pleasanton, CA). FTH1 and TFRC gene expression was estimated relative to expression of the housekeeping gene, beta-actin (ACTB), following the standard formula: 2-ΔCt. TaqMan probe IDs used include: (i) FTH1, Hs01694011_s1; (ii) TFRC, Hs00951083_m1; and (iii) ACTB, Hs01060665_g1. […]

[2] = tested on: ferritin heavy chain 1 (FTH1) mRNA; experiment: FTH1 gene expression by qRT-PCR in PC3 cells
Method: as §1, §2, §3

LNCaP cells = experiment: Clonogenic assay, LNCaP cells; details: for relative percent colony survival / minimal inhibitory concentration (MIC) of bicalutamide: LNCaP; for minimal inhibitory concentration (MIC) of bicalutamide: concentration that begins to inhibit colony formation
Method: (§4) Test Solutions. SPH test solutions were prepared by adding 10 μg, 40 μg, or 160 μg of SPH powder to 1 ml of DMEM containing 0.3% FBS+2% DMSO and sonicating for 10 min just prior to use. Bicalutamide, referred to herein as BIC, (Sigma-Aldrich, Catalog No. B9061) test solutions were prepared by adding 0.43 or 4.3 μg to 1 ml (1 μM and 10 μM) of DMEM containing 0.3% FBS+2% DMSO and sonicating for 10 min just prior to use.
(§5) Cell Culture. The C4 subline (CRL-3313™, RRID: CVCL 4783), which was derived from the human prostate carcinoma cell line LNCaP, was obtained from ATCC (Manassas, VA). C4, which is referred to herein as LNCaP, is an exemplary androgen receptor-positive (AR+ve) cell line that has an epithelial-like morphology and a low metastatic potential. The PC-3 cell line (CRL-1435, RRID: CVCL_0035) was obtained from ATCC (Manassas, VA). PC-3 is an exemplary androgen receptor-negative (AR−ve) cell line that has an epithelial morphology and a high metastatic potential. The Vertebral-Cancer of the Prostate (VCaP) cell line was obtained from Sigma-Aldrich, USA (Catalog No. 06020201). VCaP is a human cell line with an epithelial morphology that was established from a metastatic prostate cancer lesion (Korenchuk et al., In Vivo, 15(2):163˜168, 2001). VCaP cells are androgen receptor-positive and express high levels of prostate-specific antigen. The VCaP-EnzR cell line was also obtained from Sigma-Aldrich, USA (Catalog No. SCC421). […] VCaP-EnzR cells are enzalutamide-resistant and therefore are a suitable model for studying castration-resistant prostate cancer. All cell lines were cultured in RPMI1640 supplemented with 2 mmol/L L-glutamine. 100 U/mL penicillin, […] streptomycin, and 10% heat-inactivated fetal bovine serum. All cells were certified negative for Mycoplasma.
(§6) Clonogenic Assay. Confluent cells were trypsinized and seeded at densities ranging from 3000 to 5000 cells in 10 cm Petri dishes, depending on the cell line, as recommended in the ATCC or Sigma-Aldrich product sheets. […] Treatments were applied daily for 5 days without media changes. The colonies were allowed to develop over 12 days, stained with crystal violet and automatically counted using a TC20 Automated Cell Counter (Bio Rad, Hercules, CA). Each assay was internally controlled using untreated cells (cell media+0.1% DMSO). Relative plating efficiencies were expressed as percentages relative to the plating efficiency of untreated cells and reported as the relative percent colony survival value. All experiments were performed in triplicate.
(§7) All oligopeptides were tested in combination with BIC or ENZ in clonogenic assays. […] SPH absent wells (DMSO 0.04%) were used as the negative control. All experiments were run in triplicate.

[3] = tested on: transferrin receptor 1 (TFRC) mRNA; experiment: TFRC gene expression by qRT-PCR in LNCaP cells
Method: as §1, §2, §3

PC3 cells = experiment: Clonogenic assay, PC3 cells; details: for decrease in survival compared to 10 μM bicalutamide monotreatment: 10 μM oligopeptide with 10 μM bicalutamide
Method: as §4, §5, §6, §7

[4] = tested on: transferrin receptor 1 (TFRC) mRNA; experiment: TFRC gene expression by qRT-PCR in PC3 cells
Method: as §1, §2, §3

VCaP cells = experiment: Clonogenic assay, VCaP cells; details: 10 μM oligopeptide with […] enzalutamide, p<0.01
Method: as §4
(§8) Cell Culture. The C4 subline (CRL-3313™, RRID: CVCL 4783), which was derived from the human prostate carcinoma cell line LNCaP, was obtained from ATCC (Manassas, VA). C4, which is referred to herein as LNCaP, is an exemplary androgen receptor-positive (AR+ve) cell line that has an epithelial-like morphology and a low metastatic potential. The PC-3 cell line (CRL-1435, RRID: CVCL_0035) was obtained from ATCC (Manassas, VA). PC-3 is an exemplary androgen receptor-negative (AR−ve) cell line that has an epithelial morphology and a high metastatic potential. The Vertebral-Cancer of the Prostate (VCaP) cell line was obtained from Sigma-Aldrich, USA (Catalog No. 06020201). […]
(§9) Clonogenic Assay. […] The colonies were allowed to develop over 12 days, stained with crystal violet and automatically counted using a TC20 Automated Cell Counter (Bio Rad, Hercules, CA). […]

VCaP-EnzR cells = experiment: Clonogenic assay, VCaP-EnzR cells; details: 10 μM oligopeptide with […] μM enzalutamide, p<0.001
Method: as §4, §8, §9

[5] = tested on: transferrin receptor 1 (TFRC) mRNA; experiment: TFRC gene expression by qRT-PCR in VCaP-EnzR cells; details: oligopeptide at 10 μM with […] μM ENZ
Method: as §1, §2, §3

[6] = tested on: transferrin receptor 1 (TFRC) mRNA; experiment: TFRC gene expression by qRT-PCR in VCaP cells; details: oligopeptide at 10 μM with […] ENZ
Method: as §1, §2, §3

[7] = tested on: ferritin heavy chain 1 (FTH1) mRNA; experiment: FTH1 gene expression by qRT-PCR in VCaP-EnzR cells; details: oligopeptide at 10 μM with […] μM ENZ
Method: as §1, §2, §3

[8] = tested on: ferritin heavy chain 1 (FTH1) mRNA; experiment: FTH1 gene expression by qRT-PCR in VCaP cells; details: oligopeptide at 10 μM with […] ENZ
Method: as §1, §2, §3

[9] = 1 μM BIC alone, relative to ACTB
[10] = oligopeptide at 10 μM with 0.4 μM BIC
[11] = oligopeptide at 10 μM with 0.4 μM BIC, listed as FT-005-B
[12] = oligopeptide at 10 μM with 10 μM BIC
[13] = oligopeptide at 10 μM with 10 μM BIC, listed as FT-005-B
[14] = oligopeptide at 10 μM with 10 μM BIC, listed as FT-007-B
[15] = oligopeptide at 10 μM with 0.4 μM BIC, listed as FT-006-B
[16] = oligopeptide at 10 μM with 0.4 μM BIC, listed as FT-008-B
[17] = oligopeptide at 10 μM with 10 μM BIC, listed as FT-008-B
[18] = oligopeptide at 10 μM with 10 μM BIC, listed as FT-002-B

Row | Compound | FTH1 Fold Change, Average [1, 10] | decrease in cell survival compared to […] enzalutamide with 160 SPH (VCaP cells) | FTH1 Fold Change, Average [2, 12] | relative survival (VCaP-EnzR cells) | TFRC Fold Change, Average [5] | TFRC Fold Change, Average [3, 10] | TFRC Fold Change, Average [6] | FTH1 Fold Change, Average [7] | decrease in survival compared to 10 μM bicalutamide monotreatment (PC3 cells; PC3) | FTH1 Fold Change, Average [8] | TFRC Fold Change, Average [4, 12] | further results
1 | CC(O)(CS(=O)(=O)c1ccc(F)cc1)C(=O)Nc1ccc(C#N)c(C(F)(F)F)c1 (centres unmarked) [BIC, bicalutamide, reference compound] |  |  |  |  |  |  |  |  |  |  |  | FTH1 Fold Change (single replicates) [1, 9]: 1.0 (2×) and 1.1; FTH1 Fold Change, Average [1, 9]: 1.0; FTH1 Fold Change (single replicates) ([2]; 10 μM BIC alone): 0.9 and 1.0 and 1.2; FTH1 Fold Change, Average ([2]; 10 μM BIC alone): 1.0; IC50 (LNCaP cells; Homo sapiens, LNCaP clonogenic assay, read-out: IC50 of bicalutamide): 0.4 µM; relative percent colony survival (LNCaP cells; 0.5 μM BIC alone): 85%; relative percent colony survival (LNCaP cells; 1.0 μM BIC alone): 25%; minimal inhibitory concentration (MIC) of bicalutamide (LNCaP cells): 1 µM; minimal inhibitory concentration (MIC) of bicalutamide (LNCaP cells; listed as bicalutamide): 0.5 µM; TFRC Fold Change (single replicates) [3, 9]: 1.0 (2×) and 1.2; TFRC Fold Change, Average [3, 9]: 1.1; IC50 (PC3 cells; Homo sapiens, PC-3, PC3 clonogenic assay, read-out: IC50 of bicalutamide): 10 µM; relative percent colony survival (PC3 cells; PC3, 10 μM BIC alone): 52%; minimal inhibitory concentration (MIC) of bicalutamide (PC3 cells; PC3, concentration that begins to inhibit colony formation): 10 µM; TFRC Fold Change (single replicates) ([4]; 10 μM BIC alone): 1.0 and 1.1 and 1.2; TFRC Fold Change, Average ([4]; 10 μM BIC alone): 1.1
2 | LDEESGEP [FT-005, synthetic oligopeptide; -B / -E: tested with bicalutamide / enzalutamide] | 2.2 | approximately 40% | 2.1 | 11% | 0.5 | 0.6 | 0.6 | 3.2 | approximately 70% | 2.3 | 0.6 | FTH1 Fold Change (single replicates) [1, 11]: 2.2 (2×) and 2.3; FTH1 Fold Change (single replicates) [2, 13]: 2.2 and 2.1 (2×); TFRC Fold Change (single replicates) [3, 11]: 0.7 and 0.6 (2×); TFRC Fold Change (single replicates) [4, 13]: 0.7 and 0.5 (2×)
3 | PREESDKP [FT-007] |  |  | 1.9 |  |  |  | 0.8 |  |  | 1.9 | 0.7 | FTH1 Fold Change (single replicates) [2, 14]: 1.9 (2×) and 2.0; TFRC Fold Change (single replicates) [4, 14]: 0.6 and 0.8 (2×)
4 | REESDKPMY [FT-006] | 1.8 |  |  |  | 0.6 | 0.9 |  | 2.6 |  |  |  | FTH1 Fold Change (single replicates) [1, 15]: 1.9 (2×) and 1.6; TFRC Fold Change (single replicates) [3, 15]: 0.9 (2×) and 0.8
5 | REESGEL [FT-008] | 2.0 |  | 1.8 |  | 0.6 | 0.8 | 0.7 | 2.5 |  | 2.2 | 0.9 | FTH1 Fold Change (single replicates) [1, 16]: 1.8 and 1.9 and 2.2; FTH1 Fold Change (single replicates) [2, 17]: 1.8 (2×) and 1.9; TFRC Fold Change (single replicates) [3, 16]: 0.8 (2×) and 0.9; TFRC Fold Change (single replicates) [6]: 0.7; TFRC Fold Change (single replicates) [4, 17]: 0.8 and 0.9 (2×)
6 | REESGEP [FT-002, synthetic oligopeptide; -B / -E: tested with bicalutamide / enzalutamide] | 2.0 | approximately 40% | 2.0 | 11% | 0.5 | 0.7 | 0.6 | 3.6 | approximately 70% | 2.2 | 0.7 | FTH1 Fold Change (single replicates) ([1]; oligopeptide at 10 μM with 0.4 μM BIC, listed as FT-002-B): 2.1 (2×) and 1.9; FTH1 Fold Change (single replicates) [2, 18]: 2.0 (2×) and 2.1; TFRC Fold Change (single replicates) [3, 10]: 0.7; TFRC Fold Change (single replicates) [4, 18]: 0.7 and 0.8 and 0.6
